Experimental data: patent US20130217694A1, “METHOD OF REDUCING THE SEVERITY OF INFLAMMATORY DERMATOLOGICAL CONDITIONS” (Allergan, Inc.., priority 2003, published 2013)

How the values were obtained:
Type in all cases: in vivo, mouse
mice [1] = experiment: Phenylephrine-induced tactile hypersensitivity in mice; settings: for tactile (mechanical) hypersensitivity score: Phenylephrine (100 ng/kg I.P.), cumulative score 0 to 16, mean ± SEM
Method: To dissect the contribution of the sympathetic nervous system to sensory sensitization, mouse models having different mechanisms of sensory sensitization were developed. Tactile hypersensitivity was measured in mice following intrathecal or intraperitoneal injection of an inducing agent by scoring the response to light stroking of the mouse flank with a paintbrush.
(§1) Spinal drug injections were performed as follows. Mice (20-30 g) were injected intrathecally as described in Hylden and Wilcox, Eur. J. Pharmacol. 67:313-316 (1980). Briefly, a sterile 30-gauge ½ inch needle attached to a microsyringe was inserted between the L5 and L6 vertebrae. The mouse was held firmly by the pelvic girdle in one hand, while the syringe was held in the other hand at an angle of approximately 20° above the vertebral column. The needle was inserted into the tissue to one side of the L6 spinous process, into the groove between the spinous and transverse processes. The needle angle was decreased to about 10°, and the needle slowly advanced forward into the intervertebral space until a pop was felt and there was a visible serpentine tail movement. Compounds were slowly injected in the subarachnoid space in a volume of 5 μl. Each compound was tested at multiple doses. The minimal efficacious dose was used for all subsequent experiments.
Sensitivity to light touch was quantified by scoring the response of mice to light stroking of their flanks with a small paintbrush, which is not normally painful. […] The scores were summed to generate a cumulative score of 0 to 16 as described in Minami et al., Pain 57:217-223 (1994). Statistical calculations of significance for in vivo studies were done using a two-tailed Students t-test.

mice [2] = experiment: Sulprostone-induced tactile hypersensitivity in mice; settings: for tactile (mechanical) hypersensitivity score: Sulprostone (200 ng IT), cumulative score 0 to 16, mean ± SEM; for analgesic activity in sulprostone-induced tactile hypersensitivity: result in words
Method: The activity of a synthetic EP1/EP3 receptor-selective prostaglandin agonist, sulprostone, also was assayed.
as §1, with “Mice (20-30 g) were injected intrathecally as described in Hylden and Wilcox, Eur. J. Pharmacol. 67:313-316 (1980).” left out
(§2) Sensitivity to light touch was quantified by scoring the response of mice to light stroking of their flanks with a small paintbrush, which is not normally painful. […] Statistical calculations of significance for in vivo studies were done using a two-tailed Students t-test.

mice [3] = experiment: NMDA-induced tactile hypersensitivity in mice; settings: for tactile (mechanical) hypersensitivity score: NMDA (100 ng IT), cumulative score 0 to 16, mean ± SEM; for inhibition of NMDA-induced tactile hypersensitivity: result in words
Method: as §1, with “Mice (20-30 g) were injected intrathecally as described in Hylden and Wilcox, Eur. J. Pharmacol. 67:313-316 (1980).” left out
as §2

Compound	tactile (mechanical) hypersensitivity score (mice [1])	tactile (mechanical) hypersensitivity score (mice [2])	tactile (mechanical) hypersensitivity score (mice [3])	analgesic activity in sulprostone-induced tactile hypersensitivity (mice [2]; wildtype mice)	also measured
COc1ccccc1N1CCN(CCCNc2c(C)c(=O)n(C)c(=O)n2C)CC1 [5-MU, 5-methyl urapidil]	5.0 ± 1.0	12.0 ± 1.0	13.3 ± 0.8		inhibition of phenylephrine-induced tactile hypersensitivity (mice [1]; wildtype mice, result in words): block the hypersensitive response
CCN(Cc1cc(Br)ccc1OCc1ccccc1)c1ccc(C(=O)O)cn1 [EP1 antagonist]	9.8 ± 0.7	4.0 ± 1.2	11.4 ± 1.53	completely blocked	
NCC1(CC(=O)O)CCCCC1 [Gabapentin]	13.0	3.2 ± 0.5	3.7 ± 0.8	inhibited tactile hypersensitivity	inhibition of NMDA-induced tactile hypersensitivity (mice [3]; wildtype mice): inhibited tactile hypersensitivity
CC12CC3CC(C)(C1)CC(N)(C3)C2.Cl [Memantine, 1-amino-3,5-dimethyladamantane hydrochloride]	11.0 ± 0.7	14.3 ± 0.8	4.2 ± 0.9		inhibition of NMDA-induced tactile hypersensitivity (mice [3]; wildtype mice): blocked
CN[C@H](CC(=O)O)C(=O)O [NMDA]					dose of maximal tactile hypersensitivity effect (mice [3]; intrathecal, wildtype mice): 100 ng
COc1cc2nc(N3CCN(C(=O)c4ccco4)CC3)nc(N)c2cc1OC [Prazosin]				no analgesic activity	analgesic activity in sulprostone-induced tactile hypersensitivity (mice [2]; α-2C knockout mice): no analgesic activity
CS(=O)(=O)NC(=O)CCC/C=C\C[C@H]1C(=O)C[C@@H](O)[C@@H]1/C=C/[C@@H](O)COc1ccccc1 [Sulprostone]					maximal dose for tactile hypersensitivity (mice [2]; intrathecal, wild-type and α-2C knockout mice): 200 ng; maximally effective dose for tactile hypersensitivity (mice [2]; intrathecal, α-2A knockout mice): 30 ng
